Assay: xn = mol fraction of the nth substance listed
Conditions: 101.3 kPa, Liquid; for viscosity: Concentric cylinders viscometry; for mass density: Vibrating tube method

CCCCn1cc[n+](C)c1C.O=S(=O)([N-]S(=O)(=O)C(F)(F)F)C(F)(F)F + COC(=O)OC
Conditions | mass density, 313.15 K [kg/m3] | mass density, 318.15 K [kg/m3] | mass density, 323.15 K [kg/m3] | mass density, 328.15 K [kg/m3] | viscosity, 313.15 K [mPa·s] | viscosity, 318.15 K [mPa·s] | viscosity, 323.15 K [mPa·s] | viscosity, 328.15 K [mPa·s]
x1 = 0.0976 | 1152.2 | 1146.2 | 1140.2 | 1133.9 | 1.343 | 1.25 | 1.165 | 1.091
x1 = 0.1935 | 1220.1 | 1214.5 | 1209 | 1203.6 | 2.405 | 2.214 | 2.046 | 1.904
x1 = 0.299 | 1270.7 | 1265.5 | 1260.3 | 1255.1 | 4.306 | 3.9 | 3.553 | 3.258
x1 = 0.4011 | 1305.6 | 1300.6 | 1295.6 | 1290.5 | 6.95 | 6.184 | 5.543 | 5.017
x1 = 0.4954 | 1330.4 | 1325.5 | 1320.6 | 1315.6 | 10.34 | 9.06 | 8 | 7.129
x1 = 0.5974 | 1351.7 | 1346.9 | 1342.1 | 1337.2 | 15.2 | 13.1 | 11.4 | 10.03
x1 = 0.6988 | 1368.8 | 1364 | 1359.3 | 1354.6 | 21.55 | 18.3 | 15.71 | 13.64
x1 = 0.7987 | 1382.7 | 1378.1 | 1373.4 | 1368.7 | 29.34 | 24.58 | 20.85 | 17.91
x1 = 0.9 | 1394.6 | 1390 | 1385.4 | 1380.8 | 39.06 | 32.32 | 27.09 | 23.04
x1 = 1 | 1404.8 | 1400.2 | 1395.6 | 1391 | 50.56 | 41.38 | 34.32 | 28.91

Source: the NIST ThermoML archive (doi:10.1016/j.jct.2018.10.015)
